In US20230113037A1 (Bayer Aktiengesellschaft, priority 2019, published 2023):
Read-outs that look alike come from different tables or passages of the source.

Assays:
AHR [1] = molecular target: T1, AHR (Mus musculus, UniProt P30561); test: In vitro assay 3: antagonism in mouse cell line (AHR transactivation, firefly luciferase reporter, kynurenic acid prestimulated); format: cell-based
T1 sequence (P30561 1-848 P471L/N533S/M589L): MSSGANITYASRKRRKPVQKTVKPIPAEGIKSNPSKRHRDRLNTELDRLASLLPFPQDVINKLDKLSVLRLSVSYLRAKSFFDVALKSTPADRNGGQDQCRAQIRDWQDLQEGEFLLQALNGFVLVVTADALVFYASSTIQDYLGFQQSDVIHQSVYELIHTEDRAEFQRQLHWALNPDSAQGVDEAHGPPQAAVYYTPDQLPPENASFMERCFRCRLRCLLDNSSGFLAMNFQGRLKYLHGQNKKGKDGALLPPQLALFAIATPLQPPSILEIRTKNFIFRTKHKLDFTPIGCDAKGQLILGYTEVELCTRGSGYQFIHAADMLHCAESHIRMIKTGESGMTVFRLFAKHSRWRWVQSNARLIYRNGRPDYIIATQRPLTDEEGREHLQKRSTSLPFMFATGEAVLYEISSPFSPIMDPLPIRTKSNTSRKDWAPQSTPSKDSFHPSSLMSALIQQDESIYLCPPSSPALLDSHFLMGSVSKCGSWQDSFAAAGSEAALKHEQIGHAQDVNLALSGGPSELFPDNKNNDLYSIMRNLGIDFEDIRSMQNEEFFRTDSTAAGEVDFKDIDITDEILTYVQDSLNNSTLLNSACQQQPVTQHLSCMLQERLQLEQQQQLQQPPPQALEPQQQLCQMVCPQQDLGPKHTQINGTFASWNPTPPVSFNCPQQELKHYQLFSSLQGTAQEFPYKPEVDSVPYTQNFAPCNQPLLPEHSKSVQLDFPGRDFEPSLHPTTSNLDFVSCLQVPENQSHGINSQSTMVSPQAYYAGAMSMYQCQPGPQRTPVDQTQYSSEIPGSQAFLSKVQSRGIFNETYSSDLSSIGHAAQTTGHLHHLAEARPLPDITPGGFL
In short: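 Antagonism read as reduced firefly luciferase signal (SteadyGlo) from a stably transfected AHR/DRE reporter in a mouse line prestimulated with kynurenic acid. Data normalized to controls, the full-inhibition control being cells without kynurenic acid; multiple determinations given as average or median values.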

AHR [2] = molecular target: T2, AHR (Homo sapiens, UniProt P35869); test: In vitro assay 1: antagonism in human cell line (AHR transactivation, firefly luciferase reporter, kynurenic acid prestimulated); format: cell-based; details: AHR Antagonism Human IC50 [M], firefly luciferase reporter
T2 construct: U87 MG glioblastoma cells (ATCC #HTB-14) endogenously expressing AHR; endogenous in cells; host or cells: U87 MG glioblastoma cells (ATCC #HTB-14)
T2 sequence (P35869 11-848): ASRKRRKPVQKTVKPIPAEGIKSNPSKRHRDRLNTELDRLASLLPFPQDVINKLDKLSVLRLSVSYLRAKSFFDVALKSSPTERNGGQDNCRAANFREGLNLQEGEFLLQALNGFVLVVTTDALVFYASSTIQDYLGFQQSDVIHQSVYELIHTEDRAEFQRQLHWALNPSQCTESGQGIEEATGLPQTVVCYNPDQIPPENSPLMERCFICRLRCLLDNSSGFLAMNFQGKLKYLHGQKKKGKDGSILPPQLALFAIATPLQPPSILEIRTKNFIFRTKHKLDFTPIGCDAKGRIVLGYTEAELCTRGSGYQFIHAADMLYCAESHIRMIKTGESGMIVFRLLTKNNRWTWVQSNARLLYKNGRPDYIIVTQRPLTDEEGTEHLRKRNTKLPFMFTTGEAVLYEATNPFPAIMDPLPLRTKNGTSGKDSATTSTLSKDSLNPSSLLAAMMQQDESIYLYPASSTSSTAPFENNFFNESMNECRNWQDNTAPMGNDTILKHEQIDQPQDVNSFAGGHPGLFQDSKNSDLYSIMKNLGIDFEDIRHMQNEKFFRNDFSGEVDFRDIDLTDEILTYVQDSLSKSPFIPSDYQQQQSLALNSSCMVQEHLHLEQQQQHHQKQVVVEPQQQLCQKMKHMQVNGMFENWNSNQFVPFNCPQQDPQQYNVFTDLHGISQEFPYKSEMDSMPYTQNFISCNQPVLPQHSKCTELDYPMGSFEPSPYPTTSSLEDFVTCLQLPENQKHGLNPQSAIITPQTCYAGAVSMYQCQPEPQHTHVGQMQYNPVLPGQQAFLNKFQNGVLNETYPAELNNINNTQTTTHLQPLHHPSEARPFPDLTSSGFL
In short: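 Antagonism is measured against kynurenic acid prestimulation in U87 MG glioblastoma cells carrying stable DRE-luciferase and Renilla reporters. Positive inhibition control: 150 μM kynurenic acid with 5 μM staurosporine. Values are normalized to controls; repeats are averaged or given as medians.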

[3] = Hepa 1c1c7 cells, 200 μM kynurenic acid, 20 hours, firefly luciferase reporter, read-out: AHR Antagonism Mouse IC50
[4] = read-out: AHR Antagonism Mouse IC50, Hepa 1c1c7 cells, 200 μM kynurenic acid, 20 hours, firefly luciferase reporter

| Structure (SMILES) | IC50 (AHR [1]; [3]) [nM] | IC50 (AHR [2]) [M] | IC50 (AHR [1]; [4]) [nM] |
| --- | --- | --- | --- |
| CCn1cc(-c2nc3c4cccc(S(C)(=O)=O)c4nc(N[C@@H]4CNCCNC4=O)n3n2)c(C)n1 [Example 945, (6R)-6-{[2-(1-ethyl-3-methyl-1H-pyrazol-4-yl)-7-(methanesulfonyl)[1,2,4]triazolo[1,5-c]quinazolin-5-yl]amino}-1,4-diazepan-5-one] | 2080 | 4.79e-07 | – |
| Cn1nccc1-c1nc2c3cccc(C(F)(F)F)c3nc(N[C@@H]3CNCCNC3=O)n2n1 [Example 946, (6R)-6-{[2-(1-methyl-1H-pyrazol-5-yl)-7-(trifluoromethyl)[1,2,4]triazolo[1,5-c]quinazolin-5-yl]amino}-1,4-diazepan-5-one] | 2.16 | 8.75e-09 | – |
| O=C1NCCNC[C@H]1Nc1nc2c(C(F)(F)F)cccc2c2nc(-c3ccc(Cl)cc3)nn12 [Example 947, (6R)-6-{[2-(4-chlorophenyl)-7-(trifluoromethyl)[1,2,4]triazolo[1,5-c]quinazolin-5-yl]amino}-1,4-diazepan-5-one] | 0.324 | 5.91e-10 | – |
| Cc1nn(C)cc1-c1nc2c3cccc(C(F)(F)F)c3nc(N[C@H]3CNCCNC3=O)n2n1 [Example 948] | 49.6 | 2.08e-08 | – |
| CCn1cc(-c2nc3c4cccc(C(F)(F)F)c4nc(N[C@H]4CNCCNC4=O)n3n2)c(C)n1 [Example 949, (6S)-6-{[2-(1-ethyl-3-methyl-1H-pyrazol-4-yl)-7-(trifluoromethyl)[1,2,4]triazolo[1,5-c]quinazolin-5-yl]amino}-1,4-diazepan-5-one] | 14.7 | 4.4e-09 | – |
| Cc1nn(C)cc1-c1nc2c3cccc(Cl)c3nc(N[C@@H]3CNCCNC3=O)n2n1 [Example 951, (6R)-6-{[7-chloro-2-(1,3-dimethyl-1H-pyrazol-4-yl)[1,2,4]triazolo[1,5-c]quinazolin-5-yl]amino}-1,4-diazepan-5-one] | 5.44 | 3.22e-09 | – |
| O=C1NCCNC[C@H]1Nc1nc2c(Br)cccc2c2nc(-c3cnn(C4CC4)c3)nn12 [Example 952, (6R)-6-{[7-bromo-2-(1-cyclopropyl-1H-pyrazol-4-yl)[1,2,4]triazolo[1,5-c]quinazolin-5-yl]amino}-1,4-diazepan-5-one] | – | 3.97e-09 | 6.74 |
| O=C1NCCNC[C@@H]1Nc1nc2c(Br)cccc2c2nc(-c3cnn(C4CC4)c3)nn12 [Example 953, (6S)-6-{[7-bromo-2-(1-cyclopropyl-1H-pyrazol-4-yl)[1,2,4]triazolo[1,5-c]quinazolin-5-yl]amino}-1,4-diazepan-5-one] | – | 2.14e-08 | 14.9 |
| CCn1cc(-c2nc3c4cccc(Cl)c4nc(N[C@@H]4CNCCNC4=O)n3n2)c(C)n1 [Example 958, (6R)-6-{[7-chloro-2-(1-ethyl-3-methyl-1H-pyrazol-4-yl)[1,2,4]triazolo[1,5-c]quinazolin-5-yl]amino}-1,4-diazepan-5-one] | 2.84 | 1.9e-09 | – |

More lines, main results first:

| IC50 (AHR [1]; [3]) [nM] | IC50 (AHR [2]) [M] | Structure (SMILES) | IC50 (AHR [1]; [4]) [nM] |
| --- | --- | --- | --- |
| 4620 | 1.67e-06 | CC(C)n1cc(-c2nc3c4cccc(S(C)(=O)=O)c4nc(N[C@@H]4CNCCNC4=O)n3n2)cn1 [Example 944, (6R)-6-({7-(methanesulfonyl)-2-[1-(propan-2-yl)-1H-pyrazol-4-yl][1,2,4]triazolo[1,5-c]quinazolin-5-yl}amino)-1,4-diazepan-5-one] | – |
| 341 | 7.73e-08 | O=C1NCCNC[C@H]1Nc1nc2c(C3CC3)cccc2c2nc(-c3cnn(CC4CC4)c3)nn12 [Example 954, (6R)-6-({7-cyclopropyl-2-[1-(cyclopropylmethyl)-1H-pyrazol-4-yl][1,2,4]triazolo[1,5-c]quinazolin-5-yl}amino)-1,4-diazepan-5-one] | – |
| 452 | 5.57e-08 | CC(C)n1cc(-c2nc3c4cccc(C5CC5)c4nc(N[C@@H]4CNCCNC4=O)n3n2)cn1 [Example 955, (6R)-6-({7-cyclopropyl-2-[1-(propan-2-yl)-1H-pyrazol-4-yl][1,2,4]triazolo[1,5-c]quinazolin-5-yl}amino)-1,4-diazepan-5-one] | – |
| 8.5 | 5.77e-09 | CC(C)n1cc(-c2nc3c4cccc(Cl)c4nc(N[C@@H]4CNCCNC4=O)n3n2)cn1 [Example 956, (6R)-6-({7-chloro-2-[1-(propan-2-yl)-1H-pyrazol-4-yl][1,2,4]triazolo[1,5-c]quinazolin-5-yl}amino)-1,4-diazepan-5-one] | – |
| 16.8 | 1.22e-08 | CCn1cc(-c2nc3c4cccc(Cl)c4nc(N[C@@H]4CNCCNC4=O)n3n2)cn1 [Example 957, (6R)-6-{[7-chloro-2-(1-ethyl-1H-pyrazol-4-yl)[1,2,4]triazolo[1,5-c]quinazolin-5-yl]amino}-1,4-diazepan-5-one] | – |
| 368 | 5.36e-08 | COc1ccc(-c2nc3c4cccc(C5CC5)c4nc(N[C@H]4CNCCNC4=O)n3n2)cc1 [Example 959, (6S)-6-{[7-cyclopropyl-2-(4-methoxyphenyl)[1,2,4]triazolo[1,5-c]quinazolin-5-yl]amino}-1,4-diazepan-5-one] | – |
| 93 | 4.02e-08 | CC(C)n1cc(-c2nc3c4cccc(C(F)(F)F)c4nc(N[C@H]4CNCCNC4=O)n3n2)cn1 [Example 960, (6S)-6-({2-[1-(propan-2-yl)-1H-pyrazol-4-yl]-7-(trifluoromethyl)[1,2,4]triazolo[1,5-c]quinazolin-5-yl}amino)-1,4-diazepan-5-one] | – |
| 272 | 7.95e-07 | CCn1cc(-c2nc3c4cccc(F)c4nc(N[C@@H]4CNCCNC4=O)n3n2)cn1 [Example 961, (6R)-6-{[2-(1-ethyl-1H-pyrazol-4-yl)-7-fluoro-[1,2,4]triazolo[1,5-c]quinazolin-5-yl]amino}1-4,-diazepan-5-one] | – |
| 10.9 | 4.37e-09 | Cc1nn(C)cc1-c1nc2c3cccc(Br)c3nc(N[C@@H]3CNCCNC3=O)n2n1 [Example 962, (6R)-6-{[7-bromo-2-(1,3-dimethyl-1H-pyrazol-4-yl)[1,2,4]triazolo[1,5-c]quinazolin-5-yl]amino}-1,4-diazepan-5-one] | – |
| 4.79 | 1.76e-09 | O=C1NCCNC[C@H]1Nc1nc2c(C(F)(F)F)cccc2c2nc(-c3cnn(C4CC4)c3)nn12 [Example 963, (6R)-6-{[2-(1-cyclopropyl-1H-pyrazol-4-yl)-7-(trifluoromethyl)[1,2,4]triazolo[1,5-c]quinazolin-5-yl]amino}-1,4-diazepan-5-one] | – |
| 9.29 | 9.02e-09 | O=C1NCCNC[C@H]1Nc1nc2c(Cl)cccc2c2nc(-c3cnn(C4CC4)c3)nn12 [Example 966, (6R)-6-{[7-chloro-2-(1-cyclopropyl-1H-pyrazol-4-yl)[1,2,4]triazolo[1,5-c]quinazolin-5-yl]amino}-1,4-diazepan-5-one] | – |
| 7.46 | 6.97e-09 | O=C1NCCNC[C@H]1Nc1nc2c(Br)cccc2c2nc(-c3cnn(CC4CC4)c3)nn12 [Example 968, (6R)-6-({7-bromo-2-[1-(cyclopropylmethyl)-1H-pyrazol-4-yl][1,2,4]triazolo[1,5-c]quinazolin-5-yl}amino)-1,4-diazepan-5-one] | – |
